Among the test systems are KM-20L2; HCC 2998; NCI-H460; DMS-114; EKVX; OVCAR-8; HCT-116; SNB-19; NCI-H226; OVCAR-5; SK-MEL-28; OVCAR-4; UACC-257; M19-MEL; Malme-3M; LXFL 529; HL-60; SF-295; COLO 205.
Common to all, as to experiment: NCI-60 cell line screen, 48 h

These results are taken from ChEMBL document CHEMBL1201862, “PubChem BioAssay data set” (2004).

Structures are written as SMILES.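 Dose response: 5 concentrations. Exposure: 48 h. Format: 96-well plates. Endpoint: linear interpolation; highest concentration if not reached. GI50 = concentration required for 50% inhibition of growth.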 The source made the active and inactive calls. No stated cut-off is given here; in the data, active = GI50 up to about 1.1 µM and inactive = higher.

Turning to `CCCc1c(C(=O)OCC)[nH]c(-c2ccc(-c3[nH]c(C(=O)OCC)c(CCC)c3C(=O)OCC)s2)c1C(=O)OCC`, the GI50 in the assay on KM-20L2 is 72.1 µM (inactive); in the assay on HCC 2998 it was 20.6 µM (inactive); in the assay with NCI-H460, 37 µM (inactive); in the assay with DMS-114 it was 38.1 µM (inactive); in the assay with EKVX, 62.4 µM (inactive); in the assay with OVCAR-8 it was 48 µM (inactive). Also, the GI50 in the assay on HCT-116 is 33.3 µM (inactive); in the assay on SNB-19, 78.3 µM (inactive); in the assay on NCI-H226, 72.1 µM (inactive); in the assay on OVCAR-5, 86.3 µM (inactive); in the assay with SK-MEL-28, 95.5 µM (inactive); with OVCAR-4, 18.4 µM (inactive). Also, the GI50 was 66.1 µM (inactive) in the assay on UACC-257; 52.8 µM (inactive) with M19-MEL; 39.5 µM (inactive) in the assay on Malme-3M; 33 µM (inactive) in the assay with LXFL 529; 46 µM (inactive) in the assay with HL-60; 27.9 µM (inactive) in the assay with SF-295. In addition, the GI50 in the assay with COLO 205 is > 100 µM (inactive).

Take `O=C(/C=C\c1cccc2ccccc12)c1cccc2ccccc12`: the GI50 in the assay on KM-20L2 was 9.55 µM (inactive); with HCC 2998, 13.1 µM (inactive); in the assay with NCI-H460, 8.65 µM (inactive); in the assay with DMS-114, 5.51 µM (inactive); with EKVX, 14.3 µM (inactive); in the assay on OVCAR-8, 5.82 µM (inactive). Moreover, the GI50 with HCT-116 is 6.22 µM (inactive); with SNB-19, 10.6 µM (inactive); in the assay with NCI-H226 it was 9.16 µM (inactive); with OVCAR-5 it was > 10 µM (inactive); with SK-MEL-28, 8.17 µM (inactive); with OVCAR-4 it was 6.37 µM (inactive). Further, the GI50 with UACC-257 is 16 µM (inactive); in the assay on M19-MEL, 11.4 µM (inactive); in the assay with Malme-3M, 15.9 µM (inactive); in the assay on LXFL 529 it was 9.38 µM (inactive); in the assay on HL-60 it was 3.64 µM (inactive); in the assay on SF-295, 14.7 µM (inactive). For the same compound, in the assay with COLO 205, the GI50 is > 10 µM (inactive).

For `O=C1C2=C(C(c3ccccc3)=C1c1ccccc1)c1ccccc1C1(c3ccccc3)C2=C(O)C(c2ccccc2)=C1c1ccccc1` (stereo not given), the GI50 in the assay on KM-20L2, in the assay on HCC 2998, in the assay with NCI-H460, in the assay on DMS-114, with EKVX and in the assay on OVCAR-8 was > 100 µM (inactive) each time. Further, the GI50 in the assay on HCT-116, in the assay with NCI-H226, in the assay with OVCAR-5, in the assay on SK-MEL-28, in the assay on OVCAR-4 and in the assay with UACC-257 was > 100 µM (inactive) throughout. For the same compound, the GI50 in the assay on M19-MEL, in the assay on Malme-3M, in the assay with LXFL 529, with HL-60, with SF-295 and in the assay on COLO 205 was > 100 µM (inactive) each time.

`COc1cc(CC(=O)O)c([N+](=O)[O-])cc1OC`: the GI50 in the assay with KM-20L2, in the assay with HCC 2998, with NCI-H460, in the assay with DMS-114, in the assay on EKVX and with OVCAR-8 was > 100 µM (inactive) each time. In addition, the GI50 with HCT-116, in the assay with SNB-19, in the assay with NCI-H226, in the assay on OVCAR-5, with SK-MEL-28 and in the assay on OVCAR-4 was > 100 µM (inactive) in each case. In addition, the GI50 with UACC-257, in the assay on M19-MEL, with Malme-3M, in the assay on LXFL 529, in the assay with HL-60 and in the assay on SF-295 was > 100 µM (inactive) each time. In addition, the GI50 with COLO 205 is > 100 µM (inactive).

Regarding `O=P(Oc1ccc2ccccc2c1)(N1CC1)N1CC1`, the GI50 is > 100 µM (inactive) in the assay on KM-20L2; 88.1 µM (inactive) in the assay on HCC 2998; 8.99 µM (inactive) in the assay on NCI-H460; 38.4 µM (inactive) with DMS-114; 13.6 µM (inactive) in the assay on EKVX; 59.2 µM (inactive) in the assay on OVCAR-8. In addition, the GI50 with HCT-116 is 53.3 µM (inactive); in the assay with SNB-19 it was 26.9 µM (inactive); in the assay with NCI-H226, 16.2 µM (inactive); in the assay with OVCAR-5 it was 34 µM (inactive); in the assay on SK-MEL-28 it was 28.4 µM (inactive); in the assay with OVCAR-4 it was 89.1 µM (inactive). The GI50 was 38.2 µM (inactive) in the assay with UACC-257; 13.5 µM (inactive) in the assay with M19-MEL; 10.7 µM (inactive) in the assay on Malme-3M; > 100 µM (inactive) in the assay with LXFL 529; 26.4 µM (inactive) in the assay on HL-60; 10.9 µM (inactive) in the assay on SF-295. Further, the GI50 in the assay on COLO 205 is 55.6 µM (inactive).

Turning to `COc1ccc(C(O)/C(=N\NC(N)=S)c2nc3ccc([N+](=O)[O-])cc3nc2O)cc1OC` (stereo not given), the GI50 was > 100 µM (inactive) in the assay on KM-20L2; > 100 µM (inactive) in the assay with HCC 2998; > 100 µM (inactive) in the assay on NCI-H460; 53.1 µM (inactive) in the assay with DMS-114; > 100 µM (inactive) with EKVX; > 100 µM (inactive) in the assay on OVCAR-8. Also, the GI50 was > 100 µM (inactive) with NCI-H226; > 100 µM (inactive) in the assay on OVCAR-5; > 100 µM (inactive) in the assay with SK-MEL-28; > 100 µM (inactive) in the assay on OVCAR-4; 64.3 µM (inactive) with UACC-257; > 100 µM (inactive) in the assay on M19-MEL. Besides, the GI50 with Malme-3M, in the assay with LXFL 529, with HL-60, with SF-295 and in the assay with COLO 205 was > 100 µM (inactive) in each case.

Regarding `CCN(CC)CCNC(=O)c1nn(C)c(=S)[nH]c1=S`, the GI50 in the assay on KM-20L2, in the assay with HCC 2998, in the assay with NCI-H460, in the assay with DMS-114, in the assay on EKVX and in the assay with OVCAR-8 was > 100 µM (inactive) throughout. The GI50 in the assay on HCT-116, in the assay on SNB-19, with NCI-H226, in the assay with OVCAR-5, with SK-MEL-28 and with OVCAR-4 was > 100 µM (inactive) in each case. In addition, the GI50 in the assay with UACC-257, in the assay with M19-MEL, with Malme-3M, with LXFL 529, with HL-60 and in the assay with SF-295 was > 100 µM (inactive) each time. Moreover, the GI50 in the assay with COLO 205 was > 100 µM (inactive).

On to `CC[n+]1c(/C=C/c2ccc(N(CCCl)CCCl)cc2)ccc2cc(I)ccc21`, for which the GI50 with KM-20L2 was 1.02 µM (active); with HCC 2998, 1.24 µM (inactive); with NCI-H460, 1.31 µM (inactive); with DMS-114, 0.607 µM (active); in the assay with EKVX, 2.74 µM (inactive); with OVCAR-8, 0.771 µM (active). In addition, the GI50 is 0.318 µM (active) with HCT-116; 0.843 µM (active) in the assay on SNB-19; 1.24 µM (inactive) in the assay on NCI-H226; 1.96 µM (inactive) in the assay with OVCAR-5; 0.912 µM (active) with SK-MEL-28; 0.608 µM (active) in the assay with OVCAR-4. Also, the GI50 in the assay with UACC-257 was 0.514 µM (active); in the assay on M19-MEL, 0.608 µM (active); in the assay on Malme-3M, 0.6 µM (active); in the assay with LXFL 529, 0.409 µM (active); in the assay on HL-60 it was 0.217 µM (active); with SF-295, 2.04 µM (inactive). Moreover, the GI50 with COLO 205 is 0.191 µM (active).

Regarding `CCSC1=C(C)N(/C=N/C(C)(C)C)CC1`, the GI50 with KM-20L2, in the assay on HCC 2998, in the assay on NCI-H460, with DMS-114, in the assay with EKVX and in the assay on OVCAR-8 was > 100 µM (inactive) throughout. Besides, the GI50 with HCT-116, with SNB-19, in the assay with NCI-H226, with OVCAR-5, with SK-MEL-28 and in the assay on OVCAR-4 was > 100 µM (inactive) in each case. Besides, the GI50 with UACC-257, with M19-MEL, in the assay on Malme-3M, in the assay with LXFL 529, in the assay on HL-60 and with SF-295 was > 100 µM (inactive) each time. The GI50 with COLO 205 was > 100 µM (inactive).

As for `CCOC(=O)C1=C(c2ccccc2)N(C(C)=O)Cc2ccccc21`, the GI50 is 21.6 µM (inactive) in the assay on KM-20L2; 24.7 µM (inactive) in the assay on HCC 2998; 14.3 µM (inactive) in the assay with NCI-H460; 10.4 µM (inactive) with DMS-114; 29.6 µM (inactive) with EKVX; 21.3 µM (inactive) in the assay on OVCAR-8. Besides, the GI50 in the assay on HCT-116 is 14.5 µM (inactive); in the assay on SNB-19 it was 44.6 µM (inactive); in the assay on NCI-H226, 14.9 µM (inactive); with OVCAR-5, 21.7 µM (inactive); in the assay with SK-MEL-28, 16.8 µM (inactive); in the assay on OVCAR-4, 16.7 µM (inactive). Also, the GI50 in the assay with UACC-257 was 16.9 µM (inactive); with M19-MEL it was 18.8 µM (inactive); with Malme-3M, 19.1 µM (inactive); with LXFL 529, 22.5 µM (inactive); in the assay with HL-60, 11 µM (inactive); in the assay with SF-295 it was 13.9 µM (inactive). In addition, the GI50 in the assay on COLO 205 is 15.9 µM (inactive).

As for `CCOc1ccccc1NC(=O)C1=C(C)NC(C)=C(C(=O)Nc2ccccc2OCC)C1c1ccc(NC(C)=O)cc1`, the GI50 was 25.8 µM (inactive) in the assay with KM-20L2; 12.3 µM (inactive) in the assay with HCC 2998; 35.7 µM (inactive) with NCI-H460; 40.2 µM (inactive) in the assay on DMS-114; 38.6 µM (inactive) with EKVX; 73.5 µM (inactive) with OVCAR-8. In addition, the GI50 in the assay on SNB-19 is 96.2 µM (inactive); with NCI-H226 it was 27.7 µM (inactive); with OVCAR-5, 33.6 µM (inactive); in the assay on SK-MEL-28, 73.8 µM (inactive); with OVCAR-4 it was 43.8 µM (inactive); with UACC-257 it was 23.6 µM (inactive). Also, the GI50 in the assay on M19-MEL is 28.2 µM (inactive); in the assay on Malme-3M it was 33.7 µM (inactive); with LXFL 529 it was 47.6 µM (inactive); in the assay with HL-60, 31.6 µM (inactive); in the assay on SF-295, 13.2 µM (inactive); in the assay on COLO 205 it was 16.7 µM (inactive).
